# Several values for one entry are separate records, joined by “and”; a condition that tells them apart may be missing. Equal entries are not always repeated. Marks after values point to notes of the source that are not given here.
# Test: Compatibility of active ingredient with HPMC and gelatin capsule shells (assay, related substances)
# Format: physicochemical
# Settings: for Assay (%): single vials
# Procedure: Binary mixtures of the active ingredient with the capsules shells were made as follows: • An active ingredient doping solution (active ingredient dissolved in ethanol) was made ([…]). A 100 μL aliquot of this doping was used to ‘spike’ the 10 vials of each capsule shell type as described in Table 5. The nominal quantity of active ingredient per vial was therefore 50 μg. • No doping solution was added to the three control vials of the excipient. • The active vials were left open overnight to evaporate all the ethanol, before closing the vials. • Both the active and placebo control vials were placed on stability for up to 28 days at 25° C. and 50° C.
# [1] = Gelatin capsule shell, 50° C., 28 days
# [2] = HPMC capsule shell, 25° C., 14 days
# [3] = HPMC capsule shell, 25° C., 14 days, listed as active ingredient
# [4] = HPMC capsule shell, 25° C., 28 days
# [5] = HPMC capsule shell, 25° C., 28 days, listed as active ingredient
# [6] = HPMC capsule shell, 50° C., 14 days
# [7] = HPMC capsule shell, 50° C., 14 days, listed as active ingredient
# [8] = HPMC capsule shell, 50° C., 28 days
# [9] = HPMC capsule shell, 50° C., 28 days, listed as active ingredient
# [10] = HPMC capsule shell, initial, listed as active ingredient
# [11] = Hard Gelatin capsule shell, 25° C., 14 days, listed as active ingredient
# [12] = Hard Gelatin capsule shell, 25° C., 28 days, listed as active ingredient
# [13] = Hard Gelatin capsule shell, 50° C., 14 days
# [14] = Hard Gelatin capsule shell, 50° C., 14 days, listed as active ingredient
smiles,measurement,setting,value
"CCS(=O)(=O)Nc1ccc2c(c1)nc(C(C)(C)C)n2CC1CCC(F)(F)CC1 [Compound I, N-(2-(tert-butyl)-1-((4,4-difluorocyclohexyl)methyl)-1H-benzimidazol-5-yl)ethanesulfonamide]","Assay (%), mean","Gelatin capsule shell, 25° C., 14 days",98.1%
same,Assay (%),"Gelatin capsule shell, 25° C., 14 days, listed as active ingredient",98.9% and 97.4%
same,"Assay (%), mean","Gelatin capsule shell, 25° C., 28 days",99.1%
same,Assay (%),"Gelatin capsule shell, 25° C., 28 days, listed as active ingredient",98.8% and 99.4%
same,"Assay (%), mean","Gelatin capsule shell, 50° C., 14 days",99.3%
same,Assay (%),"Gelatin capsule shell, 50° C., 14 days, listed as active ingredient",99.3% and 99.4%
same,"Assay (%), mean",[1],89.3%
same,Assay (%),[1],99.4%
same,"Assay (%), mean","Gelatin capsule shell, initial",99.6%
same,Assay (%),"Gelatin capsule shell, initial, listed as active ingredient",99.0% and 100.2%
same,"Assay (%), mean",[2],95.8%
same,Related substance RRT 1.04,[2],0.08%
same,Related substance RRT 1.10,[2],0.09%
same,Related substance RRT 0.92,[3],0.08% and 0.07%
same,Related substance RRT 0.98,[3],0.31% and 0.32%
same,Related substance RRT 1.35,[3],0.13% and 0.12%
same,Related substance RRT 1.36,[3],0.13% and 0.12%
same,Related substances total,[3],0.82% and 0.80%
same,Assay (%),[2],98.9%
same,"Assay (%), mean",[4],99.1%
same,Related substance RRT 0.92,[4],0.08%
same,Related substance RRT 1.04,[4],0.07%
same,Related substances total,[4],0.79%
same,Related substance RRT 0.98,[5],0.3% and 0.31%
same,Related substance RRT 1.10,[5],0.09% and 0.08%
same,Related substance RRT 1.35,[5],0.12% and 0.13%
same,Related substance RRT 1.36,[5],0.12% and 0.13%
same,Assay (%),[5],99.3% and 99.0%
same,"Assay (%), mean",[6],98.8%
same,Related substance RRT 0.97,[6],0.67* %
same,Related substance RRT 1.04,[6],0.07%
same,Related substance RRT 1.10,[6],0.09%
same,Related substance RRT 1.36,[6],0.12%
same,Related substance RRT 0.92,[7],0.07% and <0.05%
same,Related substance RRT 0.98,[7],0.30% and 0.29%
same,Related substance RRT 1.35,[7],0.13% and 0.12%
same,Related substances total,[7],0.79% and 1.37%
same,Assay (%),[7],98.9% and 98.7%
same,"Assay (%), mean",[8],98.9%
same,Related substance RRT 0.92,[8],0.07%
same,Related substance RRT 1.35,[8],0.12%
same,Related substance RRT 0.98,[9],0.31% and 0.32%
same,Related substance RRT 1.04,[9],0.07% and 0.09%
same,Related substance RRT 1.10,[9],0.09% and 0.10%
same,Related substance RRT 1.36,[9],0.12% and 0.13%
same,Related substances total,[9],0.79% and 0.83%
same,Assay (%),[9],98.8% and 98.9%
same,"Assay (%), mean","HPMC capsule shell, initial",97.8%
same,Related substance RRT 1.04,"HPMC capsule shell, initial",0.07%
same,Related substance RRT 1.35,"HPMC capsule shell, initial",0.13%
same,Related substance RRT 1.36,"HPMC capsule shell, initial",0.13%
same,Related substance RRT 0.92,[10],0.08% and 0.07%
same,Related substance RRT 0.98,[10],0.3% and 0.31%
same,Related substance RRT 1.10,[10],0.09% and 0.10%
same,Related substances total,[10],0.81% and 0.82%
same,Assay (%),[10],96.5% and 99.0%
same,Degradation of the active ingredient (from % assay),"HPMC or gelatin capsules, all conditions and timepoints",no degradation
same,Related substance RRT 1.35,"Hard Gelatin capsule shell, 25° C., 14 days",0.07%
same,Related substance RRT 0.92,[11],0.05% and <0.05%
same,Related substance RRT 0.98,[11],0.22% and 0.18%
same,Related substance RRT 1.04,[11],0.05% and <0.05%
same,Related substance RRT 1.10,[11],0.10% and 0.09%
same,Related substance RRT 1.36,[11],0.07% and 0.08%
same,Related substances total,[11],0.56% and 0.42%
same,Related substance RRT 1.04,"Hard Gelatin capsule shell, 25° C., 28 days",<0.05%
same,Related substance RRT 0.92,[12],0.05% and <0.05%
same,Related substance RRT 0.98,[12],0.18% and 0.14%
same,Related substance RRT 1.10,[12],0.08% and 0.09%
same,Related substance RRT 1.35,[12],0.07% and 0.06%
same,Related substance RRT 1.36,[12],0.08% and 0.07%
same,Related substances total,[12],0.47% and 0.36%
same,Related substance RRT 0.92,[13],<0.05%
same,Related substance RRT 1.04,[13],<0.05%
same,Related substance RRT 1.10,[13],0.09%
same,Related substance RRT 1.35,[13],0.06%
same,Related substance RRT 1.36,[13],0.07%
same,Related substance RRT 0.98,[14],0.14% and 0.12%
same,Related substances total,[14],0.37% and 0.34%

# Reference: US20260207560A1, “PLURALITY OF GRANULES” (priority 2022, published 2026)
